Five molecules from US7390796B2, “Fatty acid modified forms of glucocorticoids” (Sepracor Inc., priority 2002, dated 2008) can be followed below.

The subject of test [1] is WI-38 cells. As to the kind of experiment: IC50 for inhibition of IL-1β-stimulated PGE2 production in WI-38 cells. Type of test: cell-based, human. To be noted: PGE2 in supernatant, IL-1β stimulation, 24 hours, EIA. The protocol:
Nominal 5 mM solutions of the budesonide fatty acid esters were made in DMSO by adding the following amounts of compound and DMSO: docosahexaenoic acid ester of budesonide 7.5 mg in 2 ml DMSO, docosapentaenoic acid ester of budesonide 32.9 mg in 9.1 ml DMSO and eicosapentaenoic acid ester of budesonide 20.3 mg in 5.8 ml DMSO. A 5 mM solution of budesonide was made by dissolving 4.5 mg of budesonide (Sigma Chemical Company product number B 7777) in 2.1 ml DMSO.
(§1) The WI-38 human lung fibroblast line was obtained from the ATCC (catalog number 75-CCL) and maintained in Basel Medium Eagle with Earle's salts (GibcoBRL product number 21010-046) supplemented with 2 mM glutamine and 10% fetal calf serum at 37° C. in a 7% CO2 (balance air), humidified atmosphere. One week before experiments were done, the WI-38 cells were seeded into 48-well tissue culture dishes and maintained in media containing 10% fetal calf serum. The cells were used when confluent. The day before the experiment the cells were fed fresh media containing 10% fetal calf serum (0.25 ml per well). One the day of the experiment the media was removed from the cells and 0.25 ml of media containing 5% fetal calf serum added.
To determine the IC50 values for the compounds, 1 to 1000 dilutions were made of the 5 mM stock solutions in DMSO to give 5 uM solutions. These solutions were serially diluted 1:2 in DMSO to give a series of 12 dilutions ranging from 5 uM to 2.4 nM. 0.0025 ml aliquots of the 12 dilutions were added to wells of the WI-38 cells to give final compound concentrations ranging from 50 nM to 0.024 nM. The cells were stimulated by addition of 0.001 ml of 0.025 ug/ml recombinant human Interleukin-1β (IL-1β-Calbiochem catalog number 407615) in 0.1% bovine serum albumin in phosphate buffered saline. The cells were incubated for 24 hours and the supernatants harvested. The level of PGE2 in the supernatants was assayed using a commercial Enzyme Immuno Assay (EIA) kit (Cayman Chemical catalog number 514010) after diluting 1:10 in EIA buffer according to the manufacturer's directions. The data from these experiments was fit to a 4 parameter logistic function using the IC50 routine in the Grafit 4 program (Erithecus software).

The subject of test [2] is WI-38 cells. As to the kind of experiment: Wash-out (duration of action) experiment, PGE2 production in IL-1β-stimulated WI-38 cells. The settings on record: 2 hours at 50 times the IC50, washed 5 times, IL-1β stimulation, 24 hours. Format: cell-based, human. How it is done:
as §1
(§2) To test for duration of action, a wash-out experiment was performed as follows. Confluent cells in 48-well tissue culture dishes were treated with concentrations of the above compounds that were 50 times the IC50 values as determined above for 2 hours. The media was removed and the wells washed 5 times with 0.25 ml of media containing 5% fetal calf serum. 0.25 ml of media containing 5% fetal calf serum was then added. The WI-38 cells were stimulated by addition of 0.001 ml of 0.025 ug/ml recombinant human Interleukin-1β (Calbiochem catalog number 407615) in 0.1% bovine serum albumin in phosphate buffered saline. The RAW 264.7 cells were stimulated by addition of 0.001 ml of 0.5 ug/ml E. coli 0127:B8 lipopolysaccharide (LPS-Sigma catalog number L-4516) in 0.1% bovine serum albumin in phosphate buffered saline. The cells were incubated for 24 hours and the supernatants harvested. The level of PGE2 in the supernatants was assayed using a commercial Enzyme Immuno Assay (EIA) kit (Cayman Chemical catalog number 514010) after diluting 1:10 in EIA buffer according to the manufacturer's directions. Eight wells were used for each concentration and the results from these eight wells were averaged.

A further test relates to RAW 264.7 cells. Nature of the test: Wash-out (duration of action) experiment, PGE2 production in LPS-stimulated RAW 264.7 cells. Format: cell-based, rat. To be noted: 2 hours at 50 times the IC50, washed 5 times, E. coli LPS stimulation, 24 hours. The protocol:
The […] cell line RAW 264.7 was obtained from the ATCC (catalog number 71-TIB) and maintained in Dulbecco's Modified Eagle Medium (GibcoBRL product number 11960-044) supplemented with 2 mM glutamine, 1 mM sodium pyruvate and 10% fetal calf serum at 37° C. in a 10% CO2 (balance air), humidified atmosphere. One week before experiments were done, the WI-38 cells were seeded into 48-well tissue culture dishes and maintained in media containing 10% fetal calf serum. The cells were used when confluent. The day before the experiment the cells were fed fresh media containing 10% fetal calf serum (0.25 ml per well). One the day of the experiment the media was removed from the cells and 0.25 ml of media containing 5% fetal calf serum added.
as §2

In a further test the test system is paw edema. Nature of the test: Rat paw edema model. Type of test: in vivo. How it is done:
Putative anti-inflammatory agents may also be tested in vivo in a rat paw edema model [Hirschelmann, R. and Bekemeier, H., Int J Tissue React 6, 471-475 (1984)], which persons of skill in the art accept as predictive of efficacy in treating asthma and rhinitis in humans. The phytanic acid ester of budesonide was tested in this model.

Molecule `CCC=CCC=CCC=CCC=CCC=CCCCCCC(=O)OCC(=O)C12OC(CCC)OC1CC1C3CCC4=CC(=O)C=CC4(C)C3C(O)CC12C` (stereo not shown) [docosapentaenoic acid ester of budesonide] came in with an IC50 with WI-38 cells [1] of 9 nM. In addition, the values for the PGE2 production in the test on WI-38 cells [2] and with RAW 264.7 cells were 200 pg/mL and 622 pg/mL, respectively.
The like results for `CCC=CCC=CCC=CCC=CCC=CCC=CCCC(=O)OCC(=O)C12OC(CCC)OC1CC1C3CCC4=CC(=O)C=CC4(C)C3C(O)CC12C` (stereo not shown) [Docosahexaenoic acid ester of budesonide, docosahexaenoic acid ester of budesonide] were, in that order, 1.1 nM, 2075 pg/mL and 892 pg/mL.
For `CCCC1O[C@@H]2C[C@H]3[C@@H]4CCC5=CC(=O)C=C[C@]5(C)[C@H]4[C@@H](O)C[C@]3(C)[C@]2(C(=O)CO)O1` (stereo partly shown) [Budesonide, budesonide, reference compound], the IC50 in the test with WI-38 cells [1] (Homo sapiens, WI-38) stood at 0.2 nM. In addition, the PGE2 production in the test with WI-38 cells [2] came to 2688 pg/mL; with RAW 264.7 cells, 1339 pg/mL. In addition, the “percent reduction in paw volume” value was 0% with paw edema (dose 0.001 μg/paw, 1.5 hours); 20% with paw edema (dose 0.001 μg/paw, 3 hours); 15% in the test with paw edema (dose 0.001 μg/paw, 4.5 hours); 4% in the test on paw edema (dose 0.001 μg/paw, 24 hours); 3% in the test on paw edema (dose 0.001 μg/paw, 48 hours); 0% with paw edema (dose 0.001 μg/paw, 72 hours). In addition, the “percent reduction in paw volume” value in the test with paw edema (dose 0.01 μg/paw, 1.5 hours) is listed as 0%; with paw edema (dose 0.01 μg/paw, 3 hours) it was 18%; in the test on paw edema (dose 0.01 μg/paw, 4.5 hours), 0%; with paw edema (dose 0.01 μg/paw, 24 hours), 11%; in the test on paw edema (dose 0.01 μg/paw, 48 hours), 0%; in the test with paw edema (dose 0.01 μg/paw, 72 hours) it was 3%. Moreover, the “percent reduction in paw volume” value in the test on paw edema (dose 0.1 μg/paw, 1.5 hours) turned out to be 14%; with paw edema (dose 0.1 μg/paw, 3 hours), 5%; with paw edema (dose 0.1 μg/paw, 4.5 hours), 0%; in the test on paw edema (dose 0.1 μg/paw, 24 hours), 0%; with paw edema (dose 0.1 μg/paw, 48 hours), 0%; in the test with paw edema (dose 0.1 μg/paw, 72 hours) it was 0%. For the same molecule, the “percent reduction in paw volume” value in the test on paw edema (dose 1 μg/paw, 1.5 hours) is 36%; in the test with paw edema (dose 1 μg/paw, 3 hours), 45%; in the test on paw edema (dose 1 μg/paw, 4.5 hours), 32%; in the test with paw edema (dose 1 μg/paw, 24 hours) it was 44%; in the test on paw edema (dose 1 μg/paw, 48 hours), 17%; in the test on paw edema (dose 1 μg/paw, 72 hours) it was 10%. In addition, the “percent reduction in paw volume” value with paw edema (dose 10 μg/paw, 1.5 hours) is reported as 11%; with paw edema (dose 10 μg/paw, 3 hours) it was 33%; in the test with paw edema (dose 10 μg/paw, 4.5 hours) it was 34%; with paw edema (dose 10 μg/paw, 24 hours) it was 70%; with paw edema (dose 10 μg/paw, 48 hours), 38%; in the test on paw edema (dose 10 μg/paw, 72 hours), 6%.
In the test with WI-38 cells [1], `CCC=CCC=CCC=CCC=CCC=CCCCC(=O)OCC(=O)C12OC(CCC)OC1CC1C3CCC4=CC(=O)C=CC4(C)C3C(O)CC12C` (stereo not shown) [eicosapentaenoic acid ester of budesonide] returned a 50% inhibitory concentration (IC50) of 1.3 nM. For the same molecule, the PGE2 production in the test on WI-38 cells [2] came out at 806 pg/mL; with RAW 264.7 cells, 576 pg/mL.
Consider `CCCC1OC2CC3C4CCC5=CC(=O)C=CC5(C)C4C(O)CC3(C)C2(C(=O)COC(=O)CC(C)CCCC(C)CCCC(C)CCCC(C)C)O1` (stereo not shown) [Phytanic acid ester of Budesonide, phytanic acid ester of budesonide], for which the “percent reduction in paw volume” value is given as 0% in the test on paw edema (dose 0.0017 μg/paw, 1.5 hours); 10% with paw edema (dose 0.0017 μg/paw, 3 hours); 12% with paw edema (dose 0.0017 μg/paw, 4.5 hours); 4% in the test with paw edema (dose 0.0017 μg/paw, 24 hours); 7% with paw edema (dose 0.0017 μg/paw, 48 hours); 3% in the test with paw edema (dose 0.0017 μg/paw, 72 hours). The “percent reduction in paw volume” value in the test on paw edema (dose 0.017 μg/paw, 1.5 hours) is 0%; in the test on paw edema (dose 0.017 μg/paw, 3 hours), 0%; in the test with paw edema (dose 0.017 μg/paw, 4.5 hours) it was 0%; with paw edema (dose 0.017 μg/paw, 24 hours) it was 0%; in the test with paw edema (dose 0.017 μg/paw, 48 hours) it was 0%; in the test with paw edema (dose 0.017 μg/paw, 72 hours) it was 6%. The “percent reduction in paw volume” value in the test with paw edema (dose 0.17 μg/paw, 1.5 hours) came out at 0%; in the test on paw edema (dose 0.17 μg/paw, 3 hours) it was 0%; in the test on paw edema (dose 0.17 μg/paw, 4.5 hours), 0%; in the test with paw edema (dose 0.17 μg/paw, 24 hours) it was 0%; in the test on paw edema (dose 0.17 μg/paw, 48 hours) it was 0%; in the test with paw edema (dose 0.17 μg/paw, 72 hours) it was 0%. In addition, the “percent reduction in paw volume” value in the test on paw edema (dose 1.7 μg/paw, 1.5 hours) is given as 18%; with paw edema (dose 1.7 μg/paw, 3 hours), 15%; in the test with paw edema (dose 1.7 μg/paw, 4.5 hours), 2%; in the test with paw edema (dose 1.7 μg/paw, 24 hours), 30%; with paw edema (dose 1.7 μg/paw, 48 hours), 17%; with paw edema (dose 1.7 μg/paw, 72 hours) it was 16%. Also, the “percent reduction in paw volume” value is 11% in the test on paw edema (dose 17 μg/paw, 1.5 hours); 5% with paw edema (dose 17 μg/paw, 3 hours); 2% in the test with paw edema (dose 17 μg/paw, 4.5 hours); 74% in the test on paw edema (dose 17 μg/paw, 24 hours); 79% in the test with paw edema (dose 17 μg/paw, 48 hours); 65% in the test with paw edema (dose 17 μg/paw, 72 hours). In addition, in the test on paw edema (rat paw edema model, summary in words), the duration of effect result is “greatly extended duration of effect”.

In general, IC50 refers to the midpoint of a concentration-inhibition curve. The low end stands for greater potency, the high end for weaker potency.
